Data as given in patent US8921351B2, “Liquid crystalline phytosterol-glycerine complex for enhanced bioavailability and water dispersal” (Brandeis University, priority 2012, dated 2014).
Blank lines part the entries; values can stand above or below the compound they belong to.

Key:
[1] = Saturation uptake of glycerine into melted non-esterified phytosterols; type: physicochemical
Protocol: An experiment was conducted to determine the “saturation uptake” level during the chemical interaction between phytosterols and glycerine, The saturation uptake level can be either an adsorption phenomenon or a solubility phenomenon. First, the saturation level of glycerine uptake into non-esterified phytosterols was determined Mixed phytosterols that had been purified from soybean oil, and containing principally beta-sitosterol, campesterol and stigmasterol (CoroWise® FG-50), were heated, […] Increasing levels of glycerine (approximately 5, 10, 20 and 25 parts by weight) could be adsorbed or dissolved in 100 parts by weight of heated and melted free phytosterols. The evidence for adsorption (or solubility) was that a single melted phase of liquid was visible in heated glass test tubes containing these mixtures, whereas when larger amounts of glycerine were added, the glycerine formed a separate clear phase beneath the melted phytosterols. Upon cooling and solidification of the phytosterol samples containing between approximately 5 and 25 parts by weight of glycerine, the resulting solids were dry to the touch with no apparent free glycerine liquid. […]

[2] = cited from earlier work
[3] = Mutual solubility of phytosterols with glycerine or propylene glycol at 150° C.; type: physicochemical
Source text: It was discovered that a substantial amount of glycerine can be combined with phytosterol to form a complex (up to approximately 20% glycerine based on the weight of phytosterol). This was surprising given that glycerine is a low molecular weight hydrophilic substance whereas phytosterols (e.g., beta-sitosterol, campesterol and stigmasterol) are highly hydrophobic substances. […] The question arose, why can 20% glycerine dissolve into melted phytosterols when a small amount of phytosterol will not dissolve into glycerine. […] For example, equal weight percentages of these ingredients dissolve easily in one another.

- saturation level of glycerine relative to phytosterols [1]: ~20 % by weight
- solubility limit (saturation level) of glycerine in melted phytosterols ([1]; phytosterols melted at approximately 135° C.): about 25 g per 100 g phytosterols
Compound: OCC(O)CO [glycerine]

Compound: CCCCCO [n-amyl alcohol]
- solubility limit in water [2]: 2.7 g per 100 g water

- miscibility of propylene glycol and phytosterols [3]: substantially miscible
Compound: CC(O)CO (stereo not shown) [propylene glycol]
